Experimental data reported in patent US5980913A, “Peptides having immunomodulatory activity” (Biochem Pharma, Inc., priority 1994, dated 1999).
Where a SMILES comes first, the peptide text is derived from it. [ ]: non-standard residue; d: D form.

How the values were obtained:
[1] = system: spleen cell subsets (cell surface antigens); assay: In vivo/ex vivo immunophenotyping in the spleen, mice treated 4 consecutive days; set-up: species or system C57BL/6 mice
Method: C57BL.backslash.6 mice are treated with 0, 50, 100, 200, and 300 mg/kg of drug (in saline) for 4 consecutive days. Blood is taken by cardiac puncture on day 5, and the lymphocytes are isolated from spleen in the following manner:
The spleen is aseptically removed and mashed by pressing against a steel strainer with a rubber plunger. The cell suspension is separated from the clumps by letting them settle at the bottom of the tube. The cell suspension is then separated on a Lymphocyte M layer and the interface is recovered and resuspended in media.
1. Immunophenotyping (blood and spleen)
Cell immunophenotyping is performed on blood and spleen. The following cell surface antigens are analyzed:
CD4 (T helper/inducer, binds class II-restricted T cells);
CD8 (cytotoxic T cells, CTL adhesion);
MAC-1 (monocyte/macrophage);
NK (natural killer cells);
CD45 (all leukocytes, protein tyrosine phosphatase).

Toxicity in vivo = assay: Toxicity in vivo
Source text: peptide #1 (SEQ. ID NO:1) appears to be non-toxic.

Q: For `NCCCC[C@@H](N)C(=O)N[C@@H](CC(N)=O)C(=O)N1CCC[C@H]1C(=O)N[C@@H](Cc1ccc(O)cc1)C(=O)O` [PEPTIDE #5, H-(D-Lys)-Asn-Pro-Tyr-OH] (H-[dK]NPY-OH), which “CD4+ CD8- cell subset, relative percentage, MEAN” value ([1]; 100 mg/kg, second assay) is on record?
A: Its value is 31.78.

Q: What about the “CD4+ CD11b+ cell subset, relative percentage, MEAN” value ([1]; 100 mg/kg, second assay) of the same compound?
A: Its value is 0.33.

Q: And the “CD4+ CD11b- cell subset, relative percentage, MEAN” value ([1]; 100 mg/kg, second assay)?
A: The value was 14.65.

Q: What about the “CD4- CD8+ cell subset, relative percentage, MEAN” value ([1]; 100 mg/kg, second assay) of the same compound?
A: The value was 4.68.

Q: And the “CD4- CD8- cell subset, relative percentage, MEAN” value ([1]; 100 mg/kg, second assay)?
A: Its value is 63.03.

Q: What about the “CD4- CD11b+ cell subset, relative percentage, MEAN” value ([1]; 100 mg/kg, second assay) of the same compound?
A: Its value is 3.53.

Q: What about the “CD4- CD11b- cell subset, relative percentage, MEAN” value ([1]; 100 mg/kg, second assay) of the same compound?
A: Its value is 81.53.

Q: What about the “CD45+ CD4+ cell subset, relative percentage, MEAN” value ([1]; 100 mg/kg, second assay) of the same compound?
A: Its value is 26.40.

Q: And the “CD45+ CD4- cell subset, relative percentage, MEAN” value ([1]; 100 mg/kg, second assay)?
A: Its value is 50.20.

Q: What about the “CD45+ CD8+ cell subset, relative percentage, MEAN” value ([1]; 100 mg/kg, second assay) of the same compound?
A: Its value is 4.80.

Q: What about the “CD45+ CD8- cell subset, relative percentage, MEAN” value ([1]; 100 mg/kg, second assay) of the same compound?
A: Its value is 73.48.

Q: What about the “CD45- CD4+ cell subset, relative percentage, MEAN” value ([1]; 100 mg/kg, second assay) of the same compound?
A: Its value is 6.83.

Q: What about the “CD45- CD4- cell subset, relative percentage, MEAN” value ([1]; 100 mg/kg, second assay) of the same compound?
A: The value was 16.60.

Q: What about the “CD45- CD8+ cell subset, relative percentage, MEAN” value ([1]; 100 mg/kg, second assay) of the same compound?
A: Its value is 0.10.

Q: And the “CD45- CD8- cell subset, relative percentage, MEAN” value ([1]; 100 mg/kg, second assay)?
A: The value was 21.68.

Q: What about the “Ly5(B) cell subset, relative percentage, MEAN” value ([1]; 100 mg/kg, second assay) of the same compound?
A: Its value is 48.28.

Q: What about the “NK+ CD3+ cell subset, relative percentage, MEAN” value ([1]; 100 mg/kg, second assay) of the same compound?
A: The value was 2.25.

Q: And the “NK+ CD3- cell subset, relative percentage, MEAN” value ([1]; 100 mg/kg, second assay)?
A: The value was 4.10.

Q: And the “NK- CD3+ cell subset, relative percentage, MEAN” value ([1]; 100 mg/kg, second assay)?
A: Its value is 28.65.

Q: And the “NK- CD3- cell subset, relative percentage, MEAN” value ([1]; 100 mg/kg, second assay)?
A: Its value is 65.05.

Q: And the “TCR(T) cell subset, relative percentage, MEAN” value ([1]; 100 mg/kg, second assay)?
A: The value was 40.33.

Q: What about the “CD4+ CD8+ cell subset, relative percentage, MEAN” value ([1]; 200 mg/kg, first assay) of the same compound?
A: Its value is 0.63.

Q: What about the “CD4+ CD8- cell subset, relative percentage, MEAN” value ([1]; 200 mg/kg, first assay) of the same compound?
A: Its value is 33.73.

Q: What about the “CD4+ CD11b+ cell subset, relative percentage, MEAN” value ([1]; 200 mg/kg, first assay) of the same compound?
A: The value was 1.00.

Q: And the “CD4+ CD11b- cell subset, relative percentage, MEAN” value ([1]; 200 mg/kg, first assay)?
A: Its value is 22.65.

Q: What about the “CD4- CD8+ cell subset, relative percentage, MEAN” value ([1]; 200 mg/kg, first assay) of the same compound?
A: The value was 5.68.

Q: And the “CD4- CD8- cell subset, relative percentage, MEAN” value ([1]; 200 mg/kg, first assay)?
A: The value was 60.00.

Q: And the “CD4- CD11b+ cell subset, relative percentage, MEAN” value ([1]; 200 mg/kg, first assay)?
A: The value was 3.58.

Q: What about the “CD4- CD11b- cell subset, relative percentage, MEAN” value ([1]; 200 mg/kg, first assay) of the same compound?
A: Its value is 72.00.

Q: And the “CD45+ CD4+ cell subset, relative percentage, MEAN” value ([1]; 200 mg/kg, first assay)?
A: Its value is 21.18.

Q: And the “CD45+ CD4- cell subset, relative percentage, MEAN” value ([1]; 200 mg/kg, first assay)?
A: Its value is 54.03.

Q: What about the “CD45+ CD8+ cell subset, relative percentage, MEAN” value ([1]; 200 mg/kg, first assay) of the same compound?
A: Its value is 5.28.

Q: And the “CD45+ CD8- cell subset, relative percentage, MEAN” value ([1]; 200 mg/kg, first assay)?
A: Its value is 64.83.

Q: And the “CD45- CD4+ cell subset, relative percentage, MEAN” value ([1]; 200 mg/kg, first assay)?
A: The value was 14.33.

Q: What about the “CD45- CD4- cell subset, relative percentage, MEAN” value ([1]; 200 mg/kg, first assay) of the same compound?
A: Its value is 10.48.

Q: And the “CD45- CD8+ cell subset, relative percentage, MEAN” value ([1]; 200 mg/kg, first assay)?
A: The value was 0.55.

Q: And the “CD45- CD8- cell subset, relative percentage, MEAN” value ([1]; 200 mg/kg, first assay)?
A: The value was 29.35.

Q: What about the “Ly5(B) cell subset, relative percentage, MEAN” value ([1]; 200 mg/kg, first assay) of the same compound?
A: Its value is 59.50.

Q: And the “NK+ CD3+ cell subset, relative percentage, MEAN” value ([1]; 200 mg/kg, first assay)?
A: The value was 1.95.

Q: And the “NK+ CD3- cell subset, relative percentage, MEAN” value ([1]; 200 mg/kg, first assay)?
A: Its value is 3.88.

Q: What about the “NK- CD3+ cell subset, relative percentage, MEAN” value ([1]; 200 mg/kg, first assay) of the same compound?
A: The value was 35.70.

Q: And the “NK- CD3- cell subset, relative percentage, MEAN” value ([1]; 200 mg/kg, first assay)?
A: Its value is 58.50.

Q: What about the “TCR(T) cell subset, relative percentage, MEAN” value ([1]; 200 mg/kg, first assay) of the same compound?
A: Its value is 37.30.

Q: What about the “CD4+ CD8+ cell subset, relative percentage, MEAN” value ([1]; 200 mg/kg, second assay) of the same compound?
A: Its value is 0.55.

Q: And the “CD4+ CD8- cell subset, relative percentage, MEAN” value ([1]; 200 mg/kg, second assay)?
A: The value was 36.13.

Q: What about the “CD4+ CD11b+ cell subset, relative percentage, MEAN” value ([1]; 200 mg/kg, second assay) of the same compound?
A: The value was 0.33.

Q: And the “CD4+ CD11b- cell subset, relative percentage, MEAN” value ([1]; 200 mg/kg, second assay)?
A: Its value is 13.10.

Q: What about the “CD4- CD8+ cell subset, relative percentage, MEAN” value ([1]; 200 mg/kg, second assay) of the same compound?
A: The value was 4.95.

Q: And the “CD4- CD8- cell subset, relative percentage, MEAN” value ([1]; 200 mg/kg, second assay)?
A: The value was 58.40.

Q: And the “CD4- CD11b+ cell subset, relative percentage, MEAN” value ([1]; 200 mg/kg, second assay)?
A: The value was 3.20.

Q: And the “CD4- CD11b- cell subset, relative percentage, MEAN” value ([1]; 200 mg/kg, second assay)?
A: Its value is 78.38.

Q: And the “CD45+ CD4+ cell subset, relative percentage, MEAN” value ([1]; 200 mg/kg, second assay)?
A: The value was 29.00.

Q: What about the “CD45+ CD4- cell subset, relative percentage, MEAN” value ([1]; 200 mg/kg, second assay) of the same compound?
A: The value was 52.45.

Q: And the “CD45+ CD8+ cell subset, relative percentage, MEAN” value ([1]; 200 mg/kg, second assay)?
A: The value was 5.08.

Q: What about the “CD45+ CD8- cell subset, relative percentage, MEAN” value ([1]; 200 mg/kg, second assay) of the same compound?
A: The value was 78.23.

Q: And the “CD45- CD4+ cell subset, relative percentage, MEAN” value ([1]; 200 mg/kg, second assay)?
A: Its value is 8.63.

Q: What about the “CD45- CD4- cell subset, relative percentage, MEAN” value ([1]; 200 mg/kg, second assay) of the same compound?
A: The value was 9.98.

Q: What about the “CD45- CD8+ cell subset, relative percentage, MEAN” value ([1]; 200 mg/kg, second assay) of the same compound?
A: Its value is 0.13.

Q: What about the “CD45- CD8- cell subset, relative percentage, MEAN” value ([1]; 200 mg/kg, second assay) of the same compound?
A: Its value is 16.60.

Q: What about the “Ly5(B) cell subset, relative percentage, MEAN” value ([1]; 200 mg/kg, second assay) of the same compound?
A: The value was 46.50.

Q: And the “NK+ CD3+ cell subset, relative percentage, MEAN” value ([1]; 200 mg/kg, second assay)?
A: Its value is 2.35.

Q: What about the “NK+ CD3- cell subset, relative percentage, MEAN” value ([1]; 200 mg/kg, second assay) of the same compound?
A: The value was 4.35.

Q: What about the “NK- CD3+ cell subset, relative percentage, MEAN” value ([1]; 200 mg/kg, second assay) of the same compound?
A: The value was 32.15.

Q: What about the “NK- CD3- cell subset, relative percentage, MEAN” value ([1]; 200 mg/kg, second assay) of the same compound?
A: The value was 61.10.

Q: What about the “TCR(T) cell subset, relative percentage, MEAN” value ([1]; 200 mg/kg, second assay) of the same compound?
A: The value was 47.23.

Q: And the “gross pathological observations (in words)” value (Toxicity in vivo; in vivo)?
A: The value was “no sign of irritation”.

Q: And the “toxic effect (in words)” value (Toxicity in vivo; up to 200 mg/kg)?
A: Its value is “No toxic effect”.
